Test system: complement activation-related acute hypersensitivity (CARPA)
Conditions: pig, in vivo
Excerpt: Adolescent (2040 kg) Yorkshire pigs of both genders are sedated with i.m. ketamine (Ketalar) and then anesthetized with halothane or isoflurane via nose cone. The trachea is intubated to allow mechanical ventilation with an anesthesia machine, using 1-2.5% halothane or isoflurane. A pulmonary artery catheter equipped with thermodilution-based continuous cardiac output detector is advanced via the right internal jugular vein through the right atrium into the pulmonary artery to measure pulmonary arterial pressure (PAP) and cardiac output (CO). Another catheter is inserted into the right femoral artery and advanced into the proximal aorta for blood sampling and to measure systemic arterial pressure (SAP). Blood pressure values and 2-3 leads of the electrocardiogram (ECG) are obtained continually.
The CARPA-activating compounds used in the following experiments are i) Doxil containing 2 mg/ml doxorubicin HCl and 16 mg/ml lipid (phospholipid concentration: 13.3 mM, 150 μg doxorubicin/μmol phospholipid), ii) multilamellar vesicles (MLV) consisting of dimyristoyl phosphatidylcholine (DMPC), dimyristoyl phosphatidylglycerol (DMPG), and cholesterol at a 45:5:50 ratio, and iii) zymosan. […]

Zymosan
reactions to second series of CARPA-activator injections compared with first administration: substantially identical | time until all physiologic and blood measures return to baseline after injection (iv): ≤ 30 min

From patent publication US20050153937A1, “Desensitization of compliment activation using monocyte/macrophage inhibitory compounds” (priority 2003, published 2005)
